Laboratory results taken from patent publication US9090628B2, “Benzoxazepin compounds selective for PI3K P110 delta and methods of use” (GENENTECH, INC., priority 2011, dated 2015).

How the values were obtained:
p110 delta = p110 delta (Homo sapiens (Human), UniProt O00329); assay: PI3K isoform inhibition assay, p110 delta (fluorescence polarization displacement); assay type: biochemical
Description: (§1) PI3K enzymatic activity was assayed by measuring the amount of product phosphatidylinositol 3,4,5-phosphate (PIP3) formed from substrate 4,5 phosphatidylinositol 4,5-phosphate (PIP2) using a fluorescence polarization displacement assay. The decrease in fluorescence polarization of a fluorescent PIP3 probe is measured as it is displaced from a PIP3-binding protein GRP-1 detector by PI3K-catalyzed product. […] The kinase reactions were initiated by the addition of 40 ng/mL p110α/p85α, 300 ng/mL p110β/p85α, 40 ng/mL p110γ, or 40 ng/mL p110δ/p85α (Upstate Group, Millipore; Dundee, UK), and 10 μM PIP2 (Echelon Biosciences) to the wells. […] After 60 minutes of incubation at room temperature to allow equilibration of labeled and unlabeled PIP3 binding, the parallel and perpendicular components of the fluorescence emissions from each sample were measured at an excitation wavelength of 530 nm and an emission wavelength of 590 nm using an Envision fluorescent plate reader with a rhodamine filter (PerkinElmer Life and Analytical Sciences; Wellesley, Mass.). The assay is capable of detecting 0.1-2.0 μM PIP3 product. The IC50 values were obtained by fitting the dose-dependent inhibition data to a 4-parameter equation using Assay Explorer software (MDL, San Ramon, Calif.).
The Formula I compound was serially diluted in 100% DMSO. The kinase reaction was incubated for 1 h at room temperature, and the reaction was terminated by the addition of PBS. IC50 values were subsequently determined using sigmoidal dose-response curve fit (variable slope).
(§2) The four Class I PI 3-kinases are cloned into baculovirus vectors as follows: […]

p110 alpha = p110 alpha (Homo sapiens (Human), UniProt P42336); assay: PI3K isoform inhibition assay, p110 alpha (for alpha/delta selectivity); details: ratio of biochemical IC50 values
Description: as §1
The same protocol may be used to establish IC50 values for p110α (alpha) PI3K binding.
as §2

Sequence of p110 alpha (P42336 whole entry, canonical isoform): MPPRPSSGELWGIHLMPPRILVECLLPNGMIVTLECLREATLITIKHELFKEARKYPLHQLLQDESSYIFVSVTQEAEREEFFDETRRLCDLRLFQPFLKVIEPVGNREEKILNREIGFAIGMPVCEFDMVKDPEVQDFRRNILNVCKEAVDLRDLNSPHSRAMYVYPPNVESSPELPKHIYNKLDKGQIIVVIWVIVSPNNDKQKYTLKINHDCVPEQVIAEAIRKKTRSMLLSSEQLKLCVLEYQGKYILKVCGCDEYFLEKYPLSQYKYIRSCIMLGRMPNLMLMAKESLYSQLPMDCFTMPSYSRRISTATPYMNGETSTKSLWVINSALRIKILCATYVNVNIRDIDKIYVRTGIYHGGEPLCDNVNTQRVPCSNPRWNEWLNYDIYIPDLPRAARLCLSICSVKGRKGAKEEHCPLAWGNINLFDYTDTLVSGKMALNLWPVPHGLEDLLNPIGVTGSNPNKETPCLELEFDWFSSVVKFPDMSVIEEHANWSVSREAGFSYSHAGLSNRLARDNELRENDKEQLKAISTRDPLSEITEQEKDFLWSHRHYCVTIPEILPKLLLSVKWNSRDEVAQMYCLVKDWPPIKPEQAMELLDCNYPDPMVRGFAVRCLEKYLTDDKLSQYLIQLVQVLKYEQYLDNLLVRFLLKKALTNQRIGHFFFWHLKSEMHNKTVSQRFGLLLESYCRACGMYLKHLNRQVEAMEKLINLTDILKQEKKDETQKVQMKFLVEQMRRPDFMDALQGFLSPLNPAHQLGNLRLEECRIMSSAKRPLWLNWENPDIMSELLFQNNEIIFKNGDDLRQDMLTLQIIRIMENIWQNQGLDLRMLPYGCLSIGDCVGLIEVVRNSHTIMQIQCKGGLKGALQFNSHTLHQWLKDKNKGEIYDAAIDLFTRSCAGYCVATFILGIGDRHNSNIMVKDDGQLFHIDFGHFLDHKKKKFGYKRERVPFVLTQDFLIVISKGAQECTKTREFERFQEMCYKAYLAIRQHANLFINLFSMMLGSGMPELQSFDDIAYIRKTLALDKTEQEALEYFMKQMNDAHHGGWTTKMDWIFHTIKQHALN
Sequence of p110 alpha (P27986 whole entry partner, canonical isoform): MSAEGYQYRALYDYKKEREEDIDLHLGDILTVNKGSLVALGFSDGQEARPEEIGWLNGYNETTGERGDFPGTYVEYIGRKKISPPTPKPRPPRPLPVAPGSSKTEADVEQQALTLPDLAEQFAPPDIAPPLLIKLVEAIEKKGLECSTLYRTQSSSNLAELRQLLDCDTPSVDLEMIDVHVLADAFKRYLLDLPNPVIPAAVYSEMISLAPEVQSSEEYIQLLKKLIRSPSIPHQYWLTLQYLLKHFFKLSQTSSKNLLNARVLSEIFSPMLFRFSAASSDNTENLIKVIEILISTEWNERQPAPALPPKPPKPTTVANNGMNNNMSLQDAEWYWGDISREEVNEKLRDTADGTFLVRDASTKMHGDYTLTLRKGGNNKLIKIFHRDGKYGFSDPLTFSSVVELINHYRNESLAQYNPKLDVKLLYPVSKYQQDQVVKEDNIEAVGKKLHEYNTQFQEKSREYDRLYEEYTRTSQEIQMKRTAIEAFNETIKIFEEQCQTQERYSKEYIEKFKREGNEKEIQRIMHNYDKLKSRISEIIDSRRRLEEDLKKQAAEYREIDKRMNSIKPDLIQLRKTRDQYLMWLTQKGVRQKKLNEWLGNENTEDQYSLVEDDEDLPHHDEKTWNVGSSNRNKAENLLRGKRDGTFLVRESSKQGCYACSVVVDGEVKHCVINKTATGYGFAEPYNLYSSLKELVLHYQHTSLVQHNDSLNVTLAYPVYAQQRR
Sequence of p110 delta (O00329 whole entry, canonical isoform): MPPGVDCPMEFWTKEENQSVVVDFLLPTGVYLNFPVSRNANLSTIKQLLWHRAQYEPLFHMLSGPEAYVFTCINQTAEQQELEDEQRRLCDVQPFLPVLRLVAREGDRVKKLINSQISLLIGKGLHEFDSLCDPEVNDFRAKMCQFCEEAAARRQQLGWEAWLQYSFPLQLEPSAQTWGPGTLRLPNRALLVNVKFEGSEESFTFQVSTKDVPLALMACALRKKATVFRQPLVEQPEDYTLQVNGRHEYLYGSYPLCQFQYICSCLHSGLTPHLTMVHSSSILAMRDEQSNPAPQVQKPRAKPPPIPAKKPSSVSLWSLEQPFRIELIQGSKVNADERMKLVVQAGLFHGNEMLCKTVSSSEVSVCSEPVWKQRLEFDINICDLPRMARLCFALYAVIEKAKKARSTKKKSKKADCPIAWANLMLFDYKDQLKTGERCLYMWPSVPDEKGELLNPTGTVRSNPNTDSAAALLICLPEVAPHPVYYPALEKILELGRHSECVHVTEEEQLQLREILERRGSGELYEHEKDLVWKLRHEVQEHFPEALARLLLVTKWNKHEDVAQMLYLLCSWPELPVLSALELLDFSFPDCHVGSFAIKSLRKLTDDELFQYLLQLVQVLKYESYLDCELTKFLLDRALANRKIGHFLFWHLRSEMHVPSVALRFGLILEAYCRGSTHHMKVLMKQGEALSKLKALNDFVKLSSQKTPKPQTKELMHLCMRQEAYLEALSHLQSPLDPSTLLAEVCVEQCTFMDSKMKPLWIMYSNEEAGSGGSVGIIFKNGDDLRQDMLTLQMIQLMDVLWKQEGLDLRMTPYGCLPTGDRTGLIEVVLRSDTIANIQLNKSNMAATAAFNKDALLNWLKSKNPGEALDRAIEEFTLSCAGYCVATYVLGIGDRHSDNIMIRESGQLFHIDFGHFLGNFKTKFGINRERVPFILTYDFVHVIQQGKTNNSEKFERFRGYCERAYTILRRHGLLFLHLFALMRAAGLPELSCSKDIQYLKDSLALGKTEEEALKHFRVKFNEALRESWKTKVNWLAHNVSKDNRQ
Sequence of p110 delta (P27986 whole entry partner, canonical isoform): as the sequence (P27986 whole entry partner, canonical isoform) above

Row | Compound | IC50 (p110 delta) [nM] | IC50 p110 alpha/IC50 p110 delta (p110 alpha)
1 | CC(C)n1ncnc1-c1cn2c(n1)-c1cnc(N3CCCC3CN3CCCC3)cc1OCC2 (centres unmarked) [Example 105, 2-(1-isopropyl-1H-1,2,4-triazol-5-yl)-9-(2-(pyrrolidin-1-ylmethyl)pyrrolidin-1-yl)-5,6-dihydroimidazo[1,2-d]pyrido[3,4-f][1,4]oxazepine] | 0.707 | 18.3
2 | CC(C)n1ncnc1-c1cn2c(n1)-c1cnc(N3CCCC3C3CCN(C)CC3)cc1OCC2 (centres unmarked) [Example 106, 2-(1-isopropyl-1H-1,2,4-triazol-5-yl)-9-(2-(1-methylpiperidin-4-yl)pyrrolidin-1-yl)-5,6-dihydroimidazo[1,2-d]pyrido[3,4-f][1,4]oxazepine] | 0.541 | 25.7
3 | CC(C)n1ncnc1-c1cn2c(n1)-c1ccc(-c3ccccc3S(N)(=O)=O)cc1OCC2 [Example 109, 2-(2-(1-isopropyl-1H-1,2,4-triazol-5-yl)-5,6-dihydrobenzo[f]imidazo[1,2-d][1,4]oxazepin-9-yl)benzenesulfonamide] | 14 | 17.3
4 | Cc1nc(-c2cn3c(n2)-c2ccc(-c4ncnn4C4CCN(C(C)(C)C)CC4)cc2OCC3)n(C(C)C)n1 [Example 258, 9-(1-(1-tert-butylpiperidin-4-yl)-1H-1,2,4-triazol-5-yl)-2-(1-isopropyl-3-methyl-1H-1,2,4-triazol-5-yl)-5,6-dihydrobenzo[f]imidazo[1,2-d][1,4]oxazepine] | 82.1 | 10.2
5 | Cc1nc(-c2cn3c(n2)-c2ccc(OC4(CN5CCN(C)CC5)CC4)cc2OCC3)n(C(C)C)n1 [Example 259, 2-(1-isopropyl-3-methyl-1H-1,2,4-triazol-5-yl)-9-(1-((4-methylpiperazin-1-yl)methyl)cyclopropoxy)-5,6-dihydrobenzo[f]imidazo[1,2-d][1,4]oxazepine] | 3.31 | 26.1
6 | Cc1nc(-c2cn3c(n2)-c2ccc(OC4CC(C)CN(C(C)C)C4)cc2OCC3)n(C(C)C)n1 (centres unmarked) [Example 260, 2-(1-isopropyl-3-methyl-1H-1,2,4-triazol-5-yl)-9-(1-isopropyl-5-methylpiperidin-3-yloxy)-5,6-dihydrobenzo[f]imidazo[1,2-d][1,4]oxazepine] | 2.56 | 12.8
7 | Cc1nc(-c2cn3c(n2)-c2ccc(OC4(C)CCN(C(C)C)C4)cc2OCC3)n(C(C)C)n1 (centres unmarked) [Example 261, 2-(1-isopropyl-3-methyl-1H-1,2,4-triazol-5-yl)-9-(1-isopropyl-3-methylpyrrolidin-3-yloxy)-5,6-dihydrobenzo[f]imidazo[1,2-d][1,4]oxazepine] | 0.638 | 14.4
8 | Cc1nc(-c2cn3c(n2)-c2ccc(-c4ccnn4C4CCCN(Cc5ccccc5)C4)cc2OCC3)n(C(C)C)n1 (centres unmarked) [Example 262, 9-(1-(1-benzylpiperidin-3-yl)-1H-pyrazol-5-yl)-2-(1-isopropyl-3-methyl-1H-1,2,4-triazol-5-yl)-5,6-dihydrobenzo[f]imidazo[1,2-d][1,4]oxazepine] | 8.53 | 21.8
9 | Cc1cc2c(cc1-c1ccnn1C1CCN(C)CC1)OCCn1cc(-c3ncnn3C(C)C)nc1-2 [Example 264, 2-(1-isopropyl-1H-1,2,4-triazol-5-yl)-10-methyl-9-(1-(1-methylpiperidin-4-yl)-1H-pyrazol-5-yl)-5,6-dihydrobenzo[f]imidazo[1,2-d][1,4]oxazepine] | 17.3 | 10
10 | Cc1nc(-c2cn3c(n2)-c2ccc(-c4ccnn4C4CCN(C(C)(C)C)CC4)cc2OCC3)n(C(C)C)n1 [Example 269, 9-[2-(1-tert-butyl-4-piperidyl)pyrazol-3-yl]-2-(2-isopropyl-5-methyl-1,2,4-triazol-3-yl)-5,6-dihydroimidazo[1,2-d][1,4]benzoxazepine] | 4.57 | 9.8
11 | CC(C)n1ncnc1-c1cn2c(n1)-c1cc([S+]([O-])C3CCN(C(C)(C)C)CC3)ccc1OCC2 (centres unmarked) [Example 270, 10-(1-tert-butylpiperidin-4-ylsulfinyl)-2-(1-isopropyl-1H-1,2,4-triazol-5-yl)-5,6-dihydrobenzo[f]imidazo[1,2-d][1,4]oxazepine] | 0.811 | 184
12 | Cc1nc(-c2cn3c(n2)-c2ccc(OC4(C)CNC4)cc2OCC3)n(C(C)C)n1 [Example 271, 2-(2-isopropyl-5-methyl-1,2,4-triazol-3-yl)-9-(3-methylazetidin-3-yl)oxy-5,6-dihydroimidazo[1,2-d][1,4]benzoxazepine] | 0.633 | 9.8
13 | Cc1nc(-c2cn3c(n2)-c2ccc(N4CCCC4C4CCN(CC(C)(C)O)CC4)cc2OCC3)n(C(C)C)n1 (centres unmarked) [Example 272, 1-[4-[1-[2-(2-isopropyl-5-methyl-1,2,4-triazol-3-yl)-5,6-dihydroimidazo[1,2-d][1,4]benzoxazepin-9-yl]pyrrolidin-2-yl]-1-piperidyl]-2-methyl-propan-2-ol] | 0.986 | 49.9
14 | Cc1nc(-c2cn3c(n2)-c2cc(C(=O)N4CCN(C(C)(C)C)CC4)c(F)cc2OCC3)n(C(C)C)n1 [Example 273, (4-tert-butylpiperazin-1-yl)-[9-fluoro-2-(2-isopropyl-5-methyl-1,2,4-triazol-3-yl)-5,6-dihydroimidazo[1,2-d][1,4]benzoxazepin-10-yl]methanone] | 2.73 | 69.9
15 | Cc1nc(-c2cn3c(n2)-c2ccc(N4CCCC4C4CCN(CC(C)(C)O)CC4)cc2OCC3)n(C(C)C)n1 (centres unmarked) [Example 274, 1-[4-[1-[2-(2-isopropyl-5-methyl-1,2,4-triazol-3-yl)-5,6-dihydroimidazo[1,2-d][1,4]benzoxazepin-9-yl]pyrrolidin-2-yl]-1-piperidyl]-2-methyl-propan-2-ol] | 2.2 | 34
16 | Cc1nc(-c2cn3c(n2)-c2ccc(OC4(c5ccccc5)CN(C(C)C)C4)cc2OCC3)n(C(C)C)n1 [Example 275, 2-(2-isopropyl-5-methyl-1,2,4-triazol-3-yl)-9-(1-isopropyl-3-phenyl-azetidin-3-yl)oxy-5,6-dihydroimidazo[1,2-d][1,4]benzoxazepine] | 6.2 | 17
17 | Cc1nc(-c2cn3c(n2)-c2cc(C(O)C4CCN(C)CC4)ccc2OCC3)n(C(C)C)n1 (centres unmarked) [Example 276, [2-(2-isopropyl-5-methyl-1,2,4-triazol-3-yl)-5,6-dihydroimidazo[1,2-d][1,4]benzoxazepin-10-yl]-(1-methyl-4-piperidyl)methanol] | 17.9 | 10.8
18 | Cc1nc(-c2cn3c(n2)-c2ccc(-c4cnn(C(C)C)c4CN4CCN(C(C)(C)C)CC4)cc2OCC3)n(C(C)C)n1 [Example 277, 9-[5-[(4-tert-butylpiperazin-1-yl)methyl]-1-isopropyl-pyrazol-4-yl]-2-(2-isopropyl-5-methyl-1,2,4-triazol-3-yl)-5,6-dihydroimidazo[1,2-d][1,4]benzoxazepine] | 4 | 27.8
19 | Cc1nc(-c2cn3c(n2)-c2ccc(-c4cnn(C(C)C)c4CN4CCN(C)CC4)cc2OCC3)n(C(C)C)n1 [Example 278, 9-[1-isopropyl-5-[(4-methylpiperazin-1-yl)methyl]pyrazol-4-yl]-2-(2-isopropyl-5-methyl-1,2,4-triazol-3-yl)-5,6-dihydroimidazo[1,2-d][1,4]benzoxazepine] | 3.34 | 33.4
